Read-outs that look alike come from different tables or passages of the source.
Key:
K562 = test: cells; assay type: cell-based; settings: Homo sapiens; for Emax: read-out: MI%; for CC50: read-out: LC50
Procedure: (§1) The assay was contracted and carried out by WuXi AppTec (Shanghai) Co., Ltd. The tumor cell lines CCRF-CEM, HL-60, KG-1, MOLT-4, K562, MV4-11, THP-1, HEL92.1.7, NCI-H929, RPMI-8226, Jurkat, Z138, RL, HS445, HepG2, MCF-7, Bx-PC-3, HT29, MIA PaCa-2, and SW620 were seeded at cell densities of […] 10^3 cells/well in a 96-well plate the day before drug incubation. Then, the plates were incubated for 72 h with the different concentrations of compound to be tested. After the incubation period, 50 μL of MTS was added and the tumor cells were incubated for 4 h at 37 °C. The data were read and collected by a Spectra Max 340 absorbance microplate reader. The compounds were tested in duplicate with nine serial concentrations (3.16-fold titrations with 198 μM as the highest concentration), and the data were analyzed by XLfit software.

MOLT-4 = test: cells; assay type: cell-based; settings: Homo sapiens; for Emax: read-out: MI%; for CC50: read-out: LC50
Procedure: as §1

SW620 = test: cells; assay type: cell-based; settings: for CC50: Homo sapiens, SW-620, 72 h, read-out: LC50; for MI%: SW620, maximum inhibitory effect over concentration range
Procedure: as §1

HS445 = test: cells; assay type: cell-based; settings: for MI%: HS445, maximum inhibitory effect over concentration range; for CC50: Homo sapiens, Hs 445, 72 h, read-out: LC50
Procedure: as §1

Plasma stability [1] = assay type: in vitro ADME, beagle dog; settings: dog plasma, with or without EHNA
Procedure: (§2) Plasma samples (10 mL of human, beagle dog, mouse, or rats from Sera laboratories, U.K.) were treated with and without 1 μM of EHNA, after which 20 μM concentration of each drug (3′dA and ProTides) was added and incubated for 2 h at 37 °C with 5% CO2. After incubation, 100 μL of each sample was taken and 300 μL of 100% methanol was added and left on ice for 30 min. After 30 min, the mixture was centrifuged (14 000 rpm, 4 °C, 10 min), and the supernatant was transferred to new tubes and evaporated under SpeedVac. Then, the dried extract was reconstituted in 100 μL of 10% acetonitrile, then transferred to LC-MS vials, and 10 μL was injected into the UPLC-MS/MS system.

[2] = system: KG1a leukemic stem cells (Lin–/CD34+/CD38–/CD123+); test: Leukemic stem cell targeting in KG1a cultures (flow cytometry); assay type: cell-based, human; settings: 72 h, LSC vs bulk tumor
Procedure: The acute myeloid leukemia (AML) KG1a cell line was maintained in RPMI medium (Invitrogen, Paisley, U.K.) supplemented with 100 units/mL penicillin, 100 μg/mL streptomycin, and 20% FBS. […] In addition, control cultures were carried out to which no drug was added. The cells were subsequently harvested by centrifugation and were analyzed by flow cytometry using the Annexin V assay. All experiments were performed in triplicate. LC50 values (the concentration of compound required to kill 50% of the cells in culture) were calculated by nonlinear regression modeling using GraphPad Prism software and are shown as mean ± standard error of the mean (SEM) for each replicate data set.
Cells were then harvested, and KG1a cells were labeled with anti-CD34 (FITC), anti-CD38 (PE), and anti-CD123 (PERCP cy5). The subpopulation expressing a leukemic stem cell (LSC) phenotype was subsequently identified and was expressed as a percentage of all viable cells left in the culture. The percentages of stem cells remaining were then plotted on a dose–response graph, and the effects of the ProTides were compared with the parental nucleoside to determine if they preferentially target cancer stem cells

Plasma stability [3] = assay type: in vitro ADME; settings: for half-life at 24 h, 20 µM: human, plasma
Procedure: […] After incubation, 100 μL of each sample was taken and 300 μL of 100% methanol was added and left on ice for 30 min. After 30 min, the mixture was centrifuged (14 000 rpm, 4 °C, 10 min), and the supernatant was transferred to new tubes and evaporated under SpeedVac. Then, the dried extract was reconstituted in 100 μL of 10% acetonitrile, then transferred to LC-MS vials, and 10 μL was injected into the UPLC-MS/MS system.

Plasma stability [4] = assay type: in vitro ADME; settings: mouse plasma
Procedure: as §2

[5] = Metabolic stability in cryopreserved human hepatocytes; assay type: in vitro ADME; settings: for hepatocyte CLint at 1 μM: pH 7.3, read-out: Clint (intrinsic clearance)
Procedure: The assay was contracted and performed by Cerep (Seattle, WA Laboratories, 15318 N. E. 95th Street Redmond, WA, 98052) according to the published procedure (Cerep ref 1432). Pooled cryopreserved hepatocytes were thawed, washed, and resuspended in Krebs–Heinslet buffer (pH 7.3). The reaction was initiated by adding the test compound (1 μM final concentration) into cell suspension and incubated in a final volume of 100 μL on a flat-bottom 96-well plate for 0 and 60 min, respectively, at 37 °C/5% CO2. The reaction was stopped by adding 100 μL of acetonitrile into the incubation mixture. Samples were then mixed gently and briefly on a plate shaker, transferred completely to a 0.8 mL V-bottom 96-well plate, and centrifuged at 2550g for 15 min at room temperature. Each supernatant (150 μL) was transferred to a clean cluster tube, followed by high-performance liquid chromatography–tandem mass spectrometry (HPLC-MS/MS) analysis on a Thermo Electron triple quadrupole system.

[6] = pH 7.3, read-out: t1/2 (half-life)

| Compound | CC50 (K562; K562, 72 h) [µM] | CC50 (MOLT-4; MOLT-4, 72 h) [µM] | CC50 (SW620) [µM] | MI% (SW620) [%] | MI% (HS445) [%] | CC50 (HS445) [µM] | stability in plasma (Plasma stability [1]) | effect on proportion of leukemic stem cells (LSCs) [2] | Emax (K562; K562, 72 h) [%] | Emax (MOLT-4; MOLT-4, 72 h) [%] | other results |
| --- | --- | --- | --- | --- | --- | --- | --- | --- | --- | --- | --- |
| Nc1ncnc2c1ncn2[C@@H]1O[C@H](CO)C[C@H]1O [3′-dA, 3′-Deoxyadenosine, reference compound] | 59.3 | 152 | > 198 | 10 | 2 | > 198 | like those found in human plasma | increased selectivity and potency against the putative leukemic stem cells |  |  | Emax (K562; 72 h, K562, maximum inhibitory effect over concentration range): 88%; Emax (MOLT-4; 72 h, MOLT-4, maximum inhibitory effect over concentration range): 52%; remaining after 24 h (Plasma stability [3]; human plasma, with EHNA): 42.1%; time until completely metabolized (Plasma stability [3]; human plasma, without EHNA): 4 h; half-life at 24 h, 20 µM (Plasma stability [3]; with EHNA): 252 min; half-life at 24 h, 20 µM (Plasma stability [3]; without EHNA): 62 min; half-life at 20 μM (Plasma stability [4]): 25 min |
| CCOC(=O)CCc1ccccc1OP(=O)(N[C@@H](C)C(=O)OCc1ccccc1)OC[C@@H]1C[C@@H](O)[C@H](n2cnc3c(N)ncnc32)O1 (some centres unmarked) [Compound 7e] | 175 | 12.6 | 43.4 | 90 | 92 | 42.7 |  |  | 61 | 97 | hepatocyte CLint at 1 μM [5]: 41.1 µL/min/1e6 cells; half-life at 1 μM [5, 6]: 26 min; half-life at 1 h, 1 µM [5, 6]: 25.6 min |
| C[C@H](NP(=O)(OC[C@@H]1C[C@@H](O)[C@H](n2cnc3c(N)ncnc32)O1)Oc1ccccc1)C(=O)OCc1ccccc1 (stereo partly drawn) [Compound 7a, (Rp)- and (Sp)-3′-Deoxyadenosine 5′-O-phenyl-(benzoxy-L-alaninyl)-phosphate] | 6.1 | 0.51 | 24.9 | 85 | 98 | 30.5 | like those found in human plasma | significantly reducing the LSC population to a greater extent than the parent nucleoside at concentrations above 1 μM | 92 | 98 | hepatocyte CLint at 1 μM ([5]; pooled cryopreserved hepatocytes): 22.6 µL/min/1e6 cells; half-life at 1 h, 1 µM ([5]; pooled cryopreserved hepatocytes, pH 7.3, read-out: t1/2 (half-life)): 48.1 min; concentration detected after 30 s of incubation (Plasma stability [3]; human plasma): 10000 ng/mL; change in plasma concentration (Plasma stability [3]; human plasma, up to 4 h): no change in plasma concentration; concentration detected after 30 s of incubation (Plasma stability [4]): 0.5 ng/mL |

Source: PMC9743095 (Journal of Medicinal Chemistry, 2022)
